Measured values reported in PubChem BioAssay (NCI).
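Test compounds were applied to cells in 96-well plates for 48 hours at 5 doses. Abbreviation: GI50, concentration required for 50% inhibition of growth. TGI marks complete inhibition of growth.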

Legend:
Assay in all cases: NCI anticancer screen, dose series, 48 h
COLO 205 colon = tested on: COLO 205 colon
HCC-2998 colon = tested on: HCC-2998 colon
IGROV1 ovarian = tested on: IGROV1 ovarian
K-562 leukemia = tested on: K-562 leukemia
NCI-H23 lung = tested on: NCI-H23 lung
SK-MEL-5 melanoma = tested on: SK-MEL-5 melanoma
SK-OV-3 ovarian = tested on: SK-OV-3 ovarian
SNB-19 CNS = tested on: SNB-19 CNS
SW-620 colon = tested on: SW-620 colon
U251 CNS = tested on: U251 CNS

N#Cc1cnc2cc(OC[C@@H](O)CO)c(NC(=O)CC3CSSC3)cc2c1Nc1ccc(OCc2cccc(F)c2)c(Cl)c1
GI50 (COLO 205 colon): 0.813 µM | TGI (COLO 205 colon): 1.63 µM | GI50 (HCC-2998 colon): 0.164 µM | TGI (HCC-2998 colon): 0.506 µM | GI50 (IGROV1 ovarian): 0.288 µM | TGI (IGROV1 ovarian): 1.11 µM | GI50 (K-562 leukemia): 0.0945 µM | TGI (K-562 leukemia): 0.207 µM | GI50 (NCI-H23 lung): 0.614 µM | TGI (NCI-H23 lung): 1.51 µM | GI50 (SK-MEL-5 melanoma): 0.743 µM | TGI (SK-MEL-5 melanoma): 1.43 µM | GI50 (SK-OV-3 ovarian): 0.567 µM | TGI (SK-OV-3 ovarian): 1.27 µM | GI50 (SNB-19 CNS): 0.381 µM | TGI (SNB-19 CNS): 1.18 µM | GI50 (SW-620 colon): 0.216 µM | TGI (SW-620 colon): 0.87 µM | GI50 (U251 CNS): 0.777 µM | TGI (U251 CNS): 1.59 µM

OCC1OC(n2ccc3c(NO)ncnc32)C(O)C1O (centres undefined)
GI50 (COLO 205 colon): 0.114 µM | TGI (COLO 205 colon): 0.617 µM | GI50 (HCC-2998 colon): 0.25 µM | TGI (HCC-2998 colon): 1 µM | GI50 (IGROV1 ovarian): 0.088 µM | TGI (IGROV1 ovarian): 1.17 µM | GI50 (K-562 leukemia): 0.201 µM | TGI (K-562 leukemia): 4.53 µM | GI50 (NCI-H23 lung): 0.214 µM | TGI (NCI-H23 lung): 1.17 µM | GI50 (SK-MEL-5 melanoma): 0.171 µM | TGI (SK-MEL-5 melanoma): 0.325 µM | GI50 (SK-OV-3 ovarian): 0.12 µM | TGI (SK-OV-3 ovarian): 5.38 µM | GI50 (SNB-19 CNS): 0.263 µM | GI50 (SW-620 colon): 0.0895 µM | TGI (SW-620 colon): 3.23 µM | GI50 (U251 CNS): 0.168 µM | TGI (U251 CNS): > 20.2 µM

O=C1C[C@@H]2C(COC(=O)c3ccccc3)N(OCc3ccccc3)C[C@@H]2O1 (some centres undefined)
TGI (COLO 205 colon): > 100 µM | TGI (HCC-2998 colon): > 100 µM | TGI (IGROV1 ovarian): > 100 µM | TGI (K-562 leukemia): > 100 µM | TGI (NCI-H23 lung): > 100 µM | TGI (SK-MEL-5 melanoma): > 100 µM | TGI (SK-OV-3 ovarian): > 100 µM | TGI (SNB-19 CNS): > 100 µM | TGI (SW-620 colon): > 100 µM | TGI (U251 CNS): > 100 µM

N#Cc1c(-c2ccccc2)cc(-c2ccc(Nc3nc(Nc4ccc(Cl)cc4)nc(Nc4ccc(Cl)cc4)n3)cc2)nc1N
GI50 (COLO 205 colon): 1.78 µM | TGI (COLO 205 colon): 3.96 µM | GI50 (HCC-2998 colon): 7 µM | TGI (HCC-2998 colon): 35.5 µM | GI50 (IGROV1 ovarian): 1.34 µM | TGI (IGROV1 ovarian): 2.67 µM | GI50 (K-562 leukemia): 2.15 µM | TGI (K-562 leukemia): 7.59 µM | GI50 (NCI-H23 lung): 6.14 µM | TGI (NCI-H23 lung): 61.4 µM | GI50 (SK-MEL-5 melanoma): 1.42 µM | TGI (SK-MEL-5 melanoma): 2.78 µM | GI50 (SK-OV-3 ovarian): 21.3 µM | TGI (SK-OV-3 ovarian): 55 µM | GI50 (SNB-19 CNS): 29.7 µM | TGI (SNB-19 CNS): > 100 µM | GI50 (SW-620 colon): 1.91 µM | TGI (SW-620 colon): 4.82 µM | GI50 (U251 CNS): 2.63 µM | TGI (U251 CNS): 10.2 µM

O=c1nc(Nc2cccc(Cl)c2)oc2cc(Cl)oc(=O)c12
GI50 (COLO 205 colon): 10.8 µM | TGI (COLO 205 colon): 23.7 µM | GI50 (HCC-2998 colon): 13.4 µM | TGI (HCC-2998 colon): 27.5 µM | GI50 (IGROV1 ovarian): 5.13 µM | TGI (IGROV1 ovarian): 21.1 µM | GI50 (K-562 leukemia): 16.4 µM | TGI (K-562 leukemia): > 100 µM | GI50 (NCI-H23 lung): 7.15 µM | TGI (NCI-H23 lung): 23.7 µM | GI50 (SK-MEL-5 melanoma): 18.2 µM | TGI (SK-MEL-5 melanoma): 54.5 µM | GI50 (SK-OV-3 ovarian): 17.2 µM | TGI (SK-OV-3 ovarian): 66.1 µM | GI50 (SNB-19 CNS): 20 µM | TGI (SNB-19 CNS): > 100 µM | GI50 (SW-620 colon): 10.9 µM | TGI (SW-620 colon): 29.9 µM | GI50 (U251 CNS): 5.08 µM | TGI (U251 CNS): 20.6 µM

CC/C=C\C[C@H](O)C/C=C1/C(=O)C=C[C@@H]1C/C=C\CCCC(=O)N(C)C
GI50 (COLO 205 colon): 1.45 µM | TGI (COLO 205 colon): 3.3 µM | GI50 (HCC-2998 colon): 1.77 µM | TGI (HCC-2998 colon): 3.2 µM | GI50 (IGROV1 ovarian): 3.3 µM | TGI (IGROV1 ovarian): 11.2 µM | GI50 (K-562 leukemia): 1.02 µM | TGI (K-562 leukemia): > 100 µM | GI50 (NCI-H23 lung): 2 µM | TGI (NCI-H23 lung): 5.74 µM | GI50 (SK-MEL-5 melanoma): 1.6 µM | TGI (SK-MEL-5 melanoma): 3 µM | GI50 (SK-OV-3 ovarian): 4.36 µM | TGI (SK-OV-3 ovarian): 15.6 µM | GI50 (SNB-19 CNS): 3.19 µM | TGI (SNB-19 CNS): 14.1 µM | GI50 (SW-620 colon): 0.851 µM | TGI (SW-620 colon): 6.16 µM | GI50 (U251 CNS): 1.32 µM | TGI (U251 CNS): 3.91 µM

CCOC(=O)c1[nH]c(-c2ccc(Cl)cc2)cc1-c1cccnc1
GI50 (COLO 205 colon): 0.398 µM | TGI (COLO 205 colon): 7.49 µM | GI50 (HCC-2998 colon): 9.46 µM | TGI (HCC-2998 colon): > 100 µM | GI50 (IGROV1 ovarian): 1.37 µM | TGI (IGROV1 ovarian): > 100 µM | GI50 (K-562 leukemia): 0.391 µM | TGI (K-562 leukemia): > 100 µM | GI50 (NCI-H23 lung): 2.33 µM | TGI (NCI-H23 lung): > 100 µM | GI50 (SK-MEL-5 melanoma): 0.401 µM | TGI (SK-MEL-5 melanoma): > 100 µM | GI50 (SK-OV-3 ovarian): 1.05 µM | TGI (SK-OV-3 ovarian): > 100 µM | GI50 (SNB-19 CNS): 8.33 µM | TGI (SNB-19 CNS): > 100 µM | GI50 (SW-620 colon): 2.87 µM | TGI (SW-620 colon): > 100 µM | GI50 (U251 CNS): 0.622 µM | TGI (U251 CNS): > 100 µM

CC(=O)O[C@H]1CC[C@@]2(C)C(=CC[C@H]3[C@@H]4C/C(=C\c5cccc(OCCN6CCOCC6)c5)[C@H](OC(C)=O)[C@@]4(C)CC[C@@H]32)C1
GI50 (COLO 205 colon): 6.46 µM | TGI (COLO 205 colon): 19.4 µM | GI50 (HCC-2998 colon): 5.32 µM | TGI (HCC-2998 colon): 17.6 µM | GI50 (IGROV1 ovarian): 25.6 µM | TGI (IGROV1 ovarian): 80.2 µM | GI50 (K-562 leukemia): 2.95 µM | TGI (K-562 leukemia): 12.5 µM | GI50 (NCI-H23 lung): 6.97 µM | TGI (NCI-H23 lung): 23.8 µM | GI50 (SK-MEL-5 melanoma): 10.5 µM | TGI (SK-MEL-5 melanoma): 22.3 µM | GI50 (SK-OV-3 ovarian): 6.85 µM | TGI (SK-OV-3 ovarian): 34 µM | GI50 (SNB-19 CNS): 9.13 µM | TGI (SNB-19 CNS): 29.3 µM | GI50 (SW-620 colon): 4.87 µM | TGI (SW-620 colon): 15.7 µM | GI50 (U251 CNS): 4.58 µM | TGI (U251 CNS): 16.6 µM

O=c1cc2ccccc2nn1Cc1ccccc1Cl
TGI (COLO 205 colon): > 100 µM | TGI (HCC-2998 colon): > 100 µM | TGI (IGROV1 ovarian): > 100 µM | TGI (K-562 leukemia): > 100 µM | TGI (NCI-H23 lung): > 100 µM | TGI (SK-MEL-5 melanoma): > 100 µM | TGI (SK-OV-3 ovarian): > 100 µM | TGI (SNB-19 CNS): > 100 µM | TGI (SW-620 colon): > 100 µM | TGI (U251 CNS): > 100 µM

C#CC1(O)C(COP(=O)(O)OC2CC(n3cc(F)c(=O)[nH]c3=O)OC2CO)OC(n2ccc(N)nc2=O)C1O (centres undefined)
GI50 (COLO 205 colon): < 0.01 µM | TGI (COLO 205 colon): 1.61 µM | GI50 (HCC-2998 colon): < 0.01 µM | TGI (HCC-2998 colon): 0.431 µM | GI50 (IGROV1 ovarian): < 0.0139 µM | TGI (IGROV1 ovarian): > 35.9 µM | GI50 (K-562 leukemia): 0.0101 µM | TGI (K-562 leukemia): > 100 µM | GI50 (NCI-H23 lung): < 0.026 µM | TGI (NCI-H23 lung): > 38 µM | GI50 (SK-MEL-5 melanoma): < 0.0154 µM | TGI (SK-MEL-5 melanoma): 0.196 µM | GI50 (SK-OV-3 ovarian): 0.0735 µM | TGI (SK-OV-3 ovarian): > 100 µM | GI50 (SNB-19 CNS): < 0.0205 µM | TGI (SNB-19 CNS): > 100 µM | GI50 (SW-620 colon): < 0.01 µM | TGI (SW-620 colon): > 100 µM | GI50 (U251 CNS): < 0.0138 µM | TGI (U251 CNS): > 100 µM

Cn1c(=O)nc2n(-c3cccc(F)c3)c3ccccc3nc-2c1=O
TGI (COLO 205 colon): 19 µM | TGI (HCC-2998 colon): 39.6 µM | TGI (IGROV1 ovarian): 62.5 µM | TGI (K-562 leukemia): 58.1 µM | TGI (NCI-H23 lung): 35.2 µM | TGI (SK-MEL-5 melanoma): 27.3 µM | TGI (SK-OV-3 ovarian): > 100 µM | TGI (SNB-19 CNS): 48.6 µM | TGI (SW-620 colon): 26.4 µM | TGI (U251 CNS): 48.9 µM
